We go through 26 compounds from patent US20080280890A1, “HYDROXYLAMINE COMPOUNDS AND METHODS OF THEIR USE” (priority 2007, published 2008).

Where a name gives a salt, the structure may show the parent alone.

Data set [1] deals with Angiogenesis in CAM model. Briefly: Neovascularization on the CAM (chick chorioallantoic membrane model of angiogenesis). The note with it: 30 ug; unit assumed. The format is in vivo, chicken. On the procedure: In vivo neovascularization was examined by the method previously described by Auerbach et al. (J. Dev. Biol. 41:391-394 (1974)). Ten-day old chicken embryos were purchased from Spafas, Inc. (Preston, Conn.) and were incubated at 37° C. with 55% relative humidity. In the dark, with the aid of a candling lamp, a small hole was punctured in the shell concealing the air sac with a hypodermic needle. A second hole was punctured in the shell on the broadside of the egg directly over an […] portion of the embryonic membrane, as observed during candling. An artificial air sac was created beneath the second hole by applying gentle vacuum to the first hole using a small rubber squeeze bulb. The vacuum caused the chorioallantoic membrane (CAM) to separate from the shell.
A window, approximately 1.0 cm^2, was cut in the shell over the dropped CAM with the use of a small crafts grinding wheel (Dremel, Division of Emerson Electric Company Racine, Wis.). The window allowed direct access to the underlying CAM.
A pro-angiogenic agent was added to induce new blood vessel branches on the CAM of 10-day old embryos. Filter disks of #1 filter paper (Whatman International, United Kingdom) were punched using a small puncher and were soaked in 3 mg/mL cortisone acetate (Sigma, St. Louis, Mo.) in a solution (95% ethanol and water). The disks were subsequently air dried under sterile conditions. The disks were then suspended in PBS (Phosphate Buffered Saline) and placed on growing CAMs. Filters treated with TP-H (TEMPOL-H) or TEMPOL and/or H2O2 or TP-H and/or bFGF or VEGF were placed on the first day of the 3-day incubation.
For inducing angiogenesis, sterile filter disks were saturated with bFGF (1 μg/ml) (Life Technologies, Gaithersburg, Md.) or other pro-angiogenesis factors and control disks were saturated with PBS without Calcium and Magnesium. […]
Using sterile forceps one filter/CAM was placed from the window. The window was sealed with Highland brand transparent tape.
After 24-48 hr, 10-25 ul of test agent was injected intravenously or added topically into the CAM membrane. Eight-Ten eggs/treatment group were used.
CAM tissue directly beneath filter disk was harvested from embryos treated 48 hours prior with compound or control. Tissues were washed three times with PBS. Sections were placed in a 35-mm petri dish (Nalge Nunc, Rochester, N.Y.) and examined under a SV6 stereomicroscope (Karl Zeiss, Thornwood, N.Y.) at 50× magnification.
CAM sections from Petri dish were examined using SV6 stereomicroscope (Karl Zeiss) at 50× magnification. Digital images of CAM sections from Petri dish were collected using a 3-CCD color video camera system (Toshiba America, New York, N.Y.). These images were analyzed using Image-Pro Plus software (Media Cybernetics, Silver Spring, Md.).
The number of branch points in blood vessels within the circular region superimposed to the area of a filter disk was counted for each section. After incubation at 37° C. with 55% relative humidity for 3 days, the CAM tissue directly beneath each filter disk was resected from control and treated CAM samples. Tissues were washed three times with PBS. Sections were placed in a 35-mm Petri dish (Nalge Nunc; Rochester, N.Y.) and were examined under a SV6 stereomicroscope (Karl Zeiss; Thornwood, N.Y.) at 50× magnification. Digital images of CAM sections adjacent to filters were collected using a 3-CCD color video camera system (Toshiba America; New York, N.Y.) and analyzed with the Image-Pro Plus software (Media Cybernetics; Silver Spring, Md.).
The number of vessel branch points contained in a circular region equal to the area of a filter disk was counted for each section. Percent inhibition data are expressed as the quotient of the experimental value minus the negative control value divided by the difference between the positive control value and the negative control value. […]

For data set [2], the system named is Human neuroblastoma SKN-SH cells, resistant to doxorubicin. Briefly: Chemoresistance: cancer cell viability (MTT) in presence or absence of doxorubicin. As to conditions: compound 50 ug/mL, MTT. Type of data set: cell-based. The source says:
A method for evaluating a compound's propensity to overcome cancer cell chemoresistance is described in “Caspase Inhibition Switches Doxorubicin-Induced Apoptosis To Senescence”, Abdelhadi Rebbaa, Xin Zheng, Pauline M Chou and Bernard L Mirkin, Oncogene (2003) 22, 2805-2811. Resistant human cancer cells to doxorubicin were selected by stepwise exposure to drug concentrations ranging from 10^−9 M-10^−6 M over 3 months. They were then subjected to treatment with the doxorubicin alone or in combination with hydroxylamine compounds 1-12, 16, 20, and 21 (Table 4). The cells were incubated with the drugs for 72 hours, and cell viability was measured by the MTT assay. Additionally, molecular pathways that might be associated with increased chemo-responsiveness with these compounds were investigated. p Cancer Cell Viability Data for certain hydroxylamines in the presence or absence of Doxorubicin is listed in Table 4.
A method for evaluating a compound's propensity to overcome cancer cell chemoresistance is described in “Caspase Inhibition Switches Doxorubicin-Induced Apoptosis To Senescence”, Abdelhadi Rebbaa, Xin Zheng, Pauline M Chou and Bernard L Mirkin, Oncogene (2003) 22, 2805-2811. Human neuroblastoma SKN-SH cells (ATCC Cat. No. HTB-11) were cultured in Dulbecco's Modified Eagles Medium (DMEM; Gibco, Grand Island, N.Y.) supplemented with 10% fetal bovine serum (FBS; Sigma-Aldrich, St. Louis, Mo.) at 37° C. in a 95% Air/5% CO2 atmosphere. Resistant human cancer cells to doxorubicin were selected by stepwise exposure to drug concentrations ranging from 10^−9M-10^−6M over 3 months. They were then subjected to treatment with the doxorubicin alone or in combination with hydroxylamine compounds. The cells were incubated with the drugs for 72 hours, and cell viability was measured by the MTT assay. This consists of adding 10 μl/well of MTT (5 mg/ml solution) and incubation for 4 h at 37° C. The precipitate formed is then solubilized by addition of 100 μl of HCL 0.5 N/Isopropanol and incubation for 15 hours at 37° C. The optical density is measured at 570 nm and cell survival is estimated by comparison to untreated cells. Each point represents 4 wells data represent average ± SE. Additionally, molecular pathways that might be associated with increased chemo-responsiveness with these compounds were investigated.
Cytotoxic activity of doxorubicin and hydroxylamine analogs were quantitatively determined by a colorimetric assay utilizing 3-(4,5-dimethyl-2-thiazolyl) 2,5-diphenyl tetrazolium bromide (MTT; Sigma-Aldrich, St. Louis, Mo.). Briefly, cells were seeded at 10^4 cells/well in 96-well plates and maintained in culture for 24 hours at 37° C. in DMEM supplemented with 10% FBS. Drugs were added to designated wells and cells were incubated for […], following which MTT (10 μL of 5 mg/ml solution) was added to each 100 μl well and incubated for 4 hours at 37° C. The cells were solubilized by incubation with 100 μl of HCl 0.5N in isopropanol for 15 hours at 37° C. The optical density of this solution was measured at 570 nm and the percentage of viable cells estimated by comparison with untreated control cells.

Consider `CC1(C)CC(Oc2nsnc2C(=O)O)CC(C)(C)N1O.Cl`, for which the melting point was 209.1 °C (dec.).
Same read-out and setting: next, `CC1(C)CC(Oc2nsnc2N2CCN(C(=O)c3ccco3)CC2)CC(C)(C)N1O.Cl`: 198.1 °C (dec.).
Same read-out and setting: for `CC1(C)CC(Oc2nc3ccccc3s2)CC(C)(C)N1O.Cl` the value was 160 °C (dec.); for `CC1(C)CC(Oc2nc3ccc(F)cc3s2)CC(C)(C)N1O.Cl`, 178 °C (dec.).
On the same count and under the same terms, next, `CC1(C)C=C(COc2ccccc2N2CCOCC2)C(C)(C)N1O.Cl`: 155.7 °C (dec.).
Take `Cc1c(C)c2c(c(C)c1O)CCC(C)(C(=O)NC1CC(C)(C)N(O)C(C)(C)C1)O2.Cl` (centres unmarked): the melting point was 174.9 °C (dec.).
On the same count and under the same terms, next, `COc1cc2c(cc1OC)CN(c1nsnc1OC1CC(C)(C)N(O)C(C)(C)C1)CC2.Cl`: 166.9 °C (dec.).
Still for that read-out and setting: for `CC1(C)CC(Nc2nc3ccccc3s2)CC(C)(C)N1O.Cl` the value was 183 °C (dec.); for `COc1ccc2nc(NC3CC(C)(C)N(O)C(C)(C)C3)sc2c1.Cl`, 220 °C (dec.); for `CC1(C)c2ccc(Br)cc2C(C)(C)N1O.Cl`, 214.1 °C.
Still for that read-out and setting: for `CC(C)(C)OC(=O)c1nsnc1OC1CC(C)(C)N(O)C(C)(C)C1.Cl` the value was 197 °C (dec.); for `CC1(C)C=C(CO)C(C)(C)N1O` (as salt: chloride) [Compound 8], 141.9 °C (dec.); for `CC1(C)CC(Oc2nsnc2C#N)CC(C)(C)N1O` (as salt: hydrochloride) [Compound 45], 179.2 °C (dec.).
`Cc1nsnc1OCC1=CC(C)(C)N(O)C1(C)C` (as salt: hydrochloride) [Compound 47, 3-((1-hydroxy-2,5-dihydro-2,2,5,5-tetramethyl-1H-pyrrol-3-yl)methoxy)-4-methyl-1,2,5-thiadiazole] showed a melting point of 173.2 °C.
Same read-out and setting: next, `CC1(C)CC(NC(=O)CCCCC2CCSS2)CC(C)(C)N1O` (centres unmarked) (as salt: hydrochloride) [Compound 49, 5-(1,2-dithialan-3-yl)-N-(1-hydroxy-2,2,6,6-tetramethylpiperidin-4-yl)pentanamide]: 164.7 °C (dec.); `CC(C)c1nsnc1OCC1=CC(C)(C)N(O)C1(C)C` (as salt: hydrochloride) [Compound 51]: 155.7 °C.
Still for that read-out and setting: for `CC1(C)CC(O)C(C)(C)N1O` (centres unmarked) (as salt: salt) [Compound 7, 2,2,5,5-Tetramethyl-Pyrrolidine-1,3-diol] the value was 155.5 °C (dec.); for `CC1(C)CC(NS(C)(=O)=O)CC(C)(C)N1O` (as salt: salt) [Compound 10, 1-hydroxy-4-methanesulfonamido-2,2,6,6-tetramethylpiperidine], 178.3 °C (dec.).
Consider `CC1(C)CC(O)C(Br)C(C)(C)N1O` (centres unmarked) [Compound 9, 3-Bromo-2,2,6,6-tetramethyl-piperidine-1,4-diol], for which the melting point is 138.5 °C (dec.). Besides, the Percent inhibition of angiogenesis in CAM model at 30 ug in data set [1] came out at 82.2%. Further, in data set [2] (Dox. 10^−6 M present (+)), the “Mean OD (×10^−3), cancer cell viability” value is on record as 234.75 ×10^−3. The “Mean OD (×10^−3), cancer cell viability” value in data set [2] (Dox. absent (−)) is 509.00 ×10^−3.
With `CC1(C)CC(C#N)CC(C)(C)N1O.Cl` [Compound 12, 4-cyano-1-hydroxyl-2,2,6,6-tetramethylpiperidine], the melting point is 186 °C (dec.). For the same compound, the “Mean OD (×10^−3), cancer cell viability” value in data set [2] (Dox. 10^−6 M present (+)) is given as 287.25 ×10^−3. Besides, the “Mean OD (×10^−3), cancer cell viability” value in data set [2] (Dox. absent (−)) is listed as 539.25 ×10^−3.
On to `CC1(C)CC(Cl)CC(C)(C)N1O.Cl` [Compound 21, 4-chloro-1-hydroxy-2,2,6,6-tetramethylpiperidine], for which the melting point was 201.8 °C (dec.). Moreover, the Percent inhibition of angiogenesis in CAM model at 30 ug in data set [1] worked out at 60.9%. Besides, in data set [2] (Dox. 10^−6 M present (+)), the “Mean OD (×10^−3), cancer cell viability” value is on record as 99.25 ×10^−3. Further, the “Mean OD (×10^−3), cancer cell viability” value in data set [2] (Dox. absent (−)) is reported as 492.75 ×10^−3.
Take `CC(C)c1nsnc1OCC1=CC(C)(C)N(O)C1(C)C` [Compound 51]: in data set [1], the Percent inhibition of angiogenesis in CAM model at 30 ug was 43%. Besides, the “Mean OD (×10^−3), cancer cell viability” value in data set [2] (Dox. 10^−6 M present (+)) was 71.00 ×10^−3; in data set [2] (Dox. absent (−)) it was 1208.25 ×10^−3.
For `CN1CCN(c2nsnc2OC2CC(C)(C)N(O)C(C)(C)C2)CC1` [Compound 52], in that order: 68.3%, 195.00 ×10^−3 and 1186.33 ×10^−3.
Consider `CC1(C)CC(Oc2nsnc2N2CCSCC2)CC(C)(C)N1O.Cl` [Compound 55, 4-(4-(1-hydroxy-2,2,6,6-tetramethylpiperidin-4-yloxy)-1,2,5-thiadiazol-3-yl)thiomorpholine], for which the melting point is 218 °C (dec.). Besides, in data set [2] (Dox. 10^−6 M present (+)), the “Mean OD (×10^−3), cancer cell viability” value is on record as 285.75 ×10^−3. Further, the “Mean OD (×10^−3), cancer cell viability” value in data set [2] (Dox. absent (−)) is recorded as 1037.25 ×10^−3.
In data set [1], `CC1(C)CC(=CC(=O)N2CCN(c3ccccc3)CC2)CC(C)(C)N1O` [Compound 56] had a Percent inhibition of angiogenesis in CAM model at 30 ug of 66.1%. In addition, the “Mean OD (×10^−3), cancer cell viability” value in data set [2] (Dox. 10^−6 M present (+)) is listed as 308.75 ×10^−3; in data set [2] (Dox. absent (−)) it was 1153.00 ×10^−3.
For `CC1(C)C(CO)=C(c2ccc(F)cc2)C(C)(C)N1O.Cl` [Compound 59, (4-(4-fluorophenyl)-1-hydroxy-2,5-dihydro-2,2,5,5-tetramethyl-1H-pyrrol-3-yl)methanol], in that order: 53%, 352.00 ×10^−3 and 1105.00 ×10^−3.
